This note sets out measurements from US20250243208A1, “BICYCLIC HETEROCYCLES AS MRGPRX2 ANTAGONISTS” (Incyte Corporation, priority 2024, published 2025).

Experiment [1] concerns the target T1, MRGPRX2 (Homo sapiens, UniProt Q96LB1).
T1 sequence (Q96LB1 1-330): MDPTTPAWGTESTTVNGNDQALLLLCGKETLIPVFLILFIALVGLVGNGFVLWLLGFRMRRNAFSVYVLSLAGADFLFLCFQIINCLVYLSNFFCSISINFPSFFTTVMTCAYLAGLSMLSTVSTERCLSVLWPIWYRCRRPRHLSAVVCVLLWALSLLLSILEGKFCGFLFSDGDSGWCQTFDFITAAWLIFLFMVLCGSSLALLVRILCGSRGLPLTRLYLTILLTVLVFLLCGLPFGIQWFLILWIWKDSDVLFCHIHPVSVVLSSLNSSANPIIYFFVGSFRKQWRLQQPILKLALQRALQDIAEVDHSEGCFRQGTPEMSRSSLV
Briefly: MRGPRX2 β-Arrestin recruitment assay (PathHunter CHO-K1). Type of experiment: cell-based. Also on record: host or cells: PathHunter CHO-K1. The note with it: PathHunter CHO-K1 cells, agonist Cortistatin 14 0.25 μM. An excerpt:
Example C: MRGPRX2 β-Arrestin Assay
This assay measures compound inhibition of β-Arrestin recruitment, which is part of the G protein-independent pathway that results from the ligand-activated GPCR phosphorylation by specific GPCR kinases. The PathHunter CHO-K1 MRPGRX2 B-Arrestin Cell line stably expressing ProLink tagged MRGPRX2 and Enzyme Acceptor Tagged B-Arrestin was purchased from Eurofins DiscoverX, (Fremont, CA).
The cells were maintained in culture medium from the Europhins DiscoverX Cell Culture Kit-107 which includes FBS, hygromycin B and G418. For the assay, the cells were harvested and were resuspended with Cell Plating Reagent 2 (Eurofins DiscoverX). Cells were added 10000 cells in 25 μL/well to a 384-well black cell culture plate (Greiner VWR, Radnor, PA) which contained 125 nL/well of compound at a selected serially diluted concentration range or DMSO. The plate was incubated at 37° C. with 5% CO2 for 1 h. 2 μL/well of agonist Cortistatin 14 was diluted in Protein Dilution Buffer, (Eurofins DiscoverX) for a final concentration of 0.25 μM, was added and the plate was incubated at 37° C. with 5% CO2 for 90 min. 14 μL/well of Detection Reagent Mix (PathHunter Detection Kit, Eurofins DiscoverX) was added to the plates and further incubated for 1 h in the dark. Plates were read on the PHERAstar microplate reader (BMG Labtech Cary, NC) measuring luminescence 0.1 to 1 s per well. Data was normalized using DMSO only wells and wells with high concentration of reference antagonist as controls. Compound IC50 curves were globally fitted with 3- or 4-parameter Hill equation in a Genedata Screener (Genedata Basel, Switzerland).
(Recruitment of arrestin is a read-out of receptor activation apart from second messengers.)

Experiment [2] deals with T1, MRGPRX2. Briefly: MRGPRX2 IP1 HTRF assay. Type of experiment: cell-based. Further details: host or cells: CHO-K1. The note with it: CHO-K1 cells, agonist Cortistatin 14 1 μM, IP1 accumulation. An excerpt: Example B: MRGPRX2 IP1 HTRF Assay
This assay measures compound inhibition of myo-Inositol 1 phosphate (IP1) accumulation in CHO-K1 cells. Chinese hamster ovary (CHO-K1) cells stably expressing human MRGPRX2 were purchased from GenScript (Piscataway, NJ).
For the HTRF IP1 determination, an IP-One GqKit (Perkin Elmer Cisbio, Waltham, MA), which includes all reagents and buffers in this protocol, was used. The cells were maintained in culture medium (Ham's F-12K) containing 10% (v/v) FBS, and 200 μg/mL Zeocin. For the assay, the cells were harvested and resuspended in culture medium with 2% FBS and without Zeocin, then were passed through a 40 μm filter. Cells were added at 20000 cells in a 5 μL/well to a 384-well white small volume cell culture plate (Greiner VWR, Radnor, PA) which contained 50 nL/well of test compound serially diluted at a selected concentration range in DMSO. 5 μL/well of prepared 2× Stimulation Buffer2 was then added to plates and was incubated at 37° C. with 5% CO2 for 1 h. 5 μL/well of agonist Cortistatin 14 (Bio-TechneR&D Systems, Minneapolis, MN) in 1× Stimulation Buffer 2, for a 1 μM final concentration, was then added to plates and incubated at 37° C. with 5% CO2 for 1 h. 6 μL/well of 1:20 diluted Detection Reagent Mix (d2 and Cryptate) was added to the plates and incubated for 1 h in the dark. Plates were read on the PHERAstar microplate reader (BMG Labtech Cary, NC) to determine the HTRF ratio of the acceptor and donor emission signals. The IP1 concentrations were calculated from a standard curve following the IP-One GQ kit instructions. Wells with DMSO only and wells with high concentration of reference antagonist were used as controls for normalization. Compound IC50 curves were globally fitted with 3- or 4-parameter Hill equation in a Genedata Screener (Genedata Basel, Switzerland).

The target of experiment [3] is T1, MRGPRX2. Briefly: potency comparison of separated isomers (assay not stated). The note with it: compared with the other separated diastereomer/enantiomer.

`CC(CNc1cc(C(F)F)nc2cc(C(F)(F)F)nn12)(c1ccccc1)C1CN(S(N)(=O)=O)C1` (racemic) [Example 7, 3-(1-((5-(Difluoromethyl)-2-(trifluoromethyl)pyrazolo[1,5-a]pyrimidin-7-yl)amino)-2-phenylpropan-2-yl)azetidine-1-sulfonamide]: the half-maximal inhibitory concentration (IC50) at MRGPRX2 [1] and at MRGPRX2 [2] was 0.0001 to 0.1 µM throughout.

Consider `CC(CNc1cc(C(F)F)nc2cc(C(F)(F)F)nn12)(c1ccccc1)C1CN(C(N)=O)C1` (racemic) [Example 8, 3-(1-((5-(Difluoromethyl)-2-(trifluoromethyl)pyrazolo[1,5-a]pyrimidin-7-yl)amino)-2-phenylpropan-2-yl)azetidine-1-carboxamide], for which the IC50 at MRGPRX2 [1] and at MRGPRX2 [2] was 0.0001 to 0.1 µM in each case.

`CC(CNc1cc(C(F)(F)F)nc2cc(C(F)(F)F)nn12)(c1ccccc1)C1CN(c2n[nH]c(N)n2)C1` (racemic) [Example 9, N-(2-(1-(5-Amino-1H-1,2,4-triazol-3-yl)azetidin-3-yl)-2-phenylpropyl)-2,5-bis(trifluoromethyl)pyrazolo[1,5-a]pyrimidin-7-amine]: the IC50 at MRGPRX2 [1] and on MRGPRX2 [2] was 0.0001 to 0.1 µM each time.

With `CC(CNc1cc(C(F)(F)F)nc2cc(C(F)(F)F)nn12)(c1ccccc1)C1CN(C(N)=O)C1` (racemic) [Example 10, 3-(1-((2,5-Bis(trifluoromethyl)pyrazolo[1,5-a]pyrimidin-7-yl)amino)-2-phenylpropan-2-yl)azetidine-1-carboxamide], the IC50 on MRGPRX2 [1] and at MRGPRX2 [2] was 0.0001 to 0.1 µM throughout.

Take `CC(CNc1cc(C(F)(F)F)nc2cc(C(F)(F)F)nn12)(c1ccccc1)C1CNC1` (racemic) [Example 11, N-(2-(Azetidin-3-yl)-2-phenylpropyl)-2,5-bis(trifluoromethyl)pyrazolo[1,5-a]pyrimidin-7-amine]: the IC50 on MRGPRX2 [1] and at MRGPRX2 [2] was 0.0001 to 0.1 µM throughout.

In the case of `CC(CNc1cc(C(F)(F)F)nc2cc(C(F)(F)F)nn12)(c1ccc(F)cc1)C1CCN(C(N)=O)C1` (single isomer, unassigned) [Example 3, 3-(1-((2,5-Bis(trifluoromethyl)pyrazolo[1,5-a]pyrimidin-7-yl)amino)-2-(4-fluorophenyl)propan-2-yl)pyrrolidine-1-carboxamide], the IC50 at MRGPRX2 [1] fell in the range of 0.0001 to 0.1 µM.

On to `CC(CNc1cc(C(F)(F)F)nc2cc(C(F)(F)F)nn12)(c1ccc(F)cc1)C1CCN(C(N)=O)C1` (single isomer, unassigned) [Example 4, 3-(1-((2,5-Bis(trifluoromethyl)pyrazolo[1,5-a]pyrimidin-7-yl)amino)-2-(4-fluorophenyl)propan-2-yl)pyrrolidine-1-carboxamide], for which the IC50 at MRGPRX2 [1] fell in the range of 0.0001 to 0.1 µM.

Consider `C[C@](CNc1cc(C(F)(F)F)nc2cc(C(F)(F)F)nn12)(c1ccc(F)cc1)C1CN(C(N)=O)C1` (single isomer, unassigned) [Example 5, 3-(1-((2,5-Bis(trifluoromethyl)pyrazolo[1,5-a]pyrimidin-7-yl)amino)-2-(4-fluorophenyl)propan-2-yl)azetidine-1-carboxamide], for which the IC50 on MRGPRX2 [2] is 0.0001 to 0.1 µM.

On to `C[C@](CNc1cc(C(F)(F)F)nc2cc(C(F)(F)F)nn12)(c1ccc(F)cc1)C1CN(C(N)=O)C1` (single isomer, unassigned) [Example 6, 3-(1-((2,5-Bis(trifluoromethyl)pyrazolo[1,5-a]pyrimidin-7-yl)amino)-2-(4-fluorophenyl)propan-2-yl)azetidine-1-carboxamide], for which the IC50 at MRGPRX2 [1] and at MRGPRX2 [2] was 0.0001 to 0.1 µM each time.

Take `NC(=O)N1CCC(C(CO)(CNc2cc(C(F)(F)F)nc3cc(C(F)(F)F)nn23)c2ccc(F)cc2)C1` (single isomer, unassigned) [Example 18, 3-(1-((2,5-Bis(trifluoromethyl)pyrazolo[1,5-a]pyrimidin-7-yl)amino)-2-(4-fluorophenyl)-3-hydroxypropan-2-yl)pyrrolidine-1-carboxamide]: the IC50 on MRGPRX2 [1] and at MRGPRX2 [2] was 0.0001 to 0.1 µM throughout.

Compound `NC(=O)N1CCC(C(CO)(CNc2cc(C(F)(F)F)nc3cc(C(F)(F)F)nn23)c2ccc(F)cc2)C1` (single isomer, unassigned) [Example 19, 3-(1-((2,5-Bis(trifluoromethyl)pyrazolo[1,5-a]pyrimidin-7-yl)amino)-2-(4-fluorophenyl)-3-hydroxypropan-2-yl)pyrrolidine-1-carboxamide] had an IC50 at MRGPRX2 [1] of 0.0001 to 0.1 µM.

`NC(=O)N1CCC(C(CNc2cc(C(F)(F)F)nc3cc(C(F)(F)F)nn23)c2ccc(F)cc2)C1` (single isomer, unassigned) [Example 20, 3-(2-((2,5-Bis(trifluoromethyl)pyrazolo[1,5-a]pyrimidin-7-yl)amino)-1-(4-fluorophenyl)ethyl)pyrrolidine-1-carboxamide] displayed an IC50 on MRGPRX2 [1] of 0.0001 to 0.1 µM. Besides, the “relative potency of the separated isomer” value at MRGPRX2 [3] is given as “more potent”.

Regarding `O=C1NC2(CCO1)CN(C(CNc1cc(C(F)(F)F)nc3cc(C(F)(F)F)nn13)c1ccc(F)cc1)C2` (single isomer, unassigned) [Example 25, 2-(2-((2,5-Bis(trifluoromethyl)pyrazolo[1,5-a]pyrimidin-7-yl)amino)-1-(4-fluorophenyl)ethyl)-7-oxa-2,5-diazaspiro[3.5]nonan-6-one], the half-maximal inhibitory concentration (IC50) at MRGPRX2 [1] lay in the range of 0.0001 to 0.1 µM. On MRGPRX2 [3], the “relative potency of the separated isomer” value is given as “more potent”.

The compound `[2H]C([2H])([2H])NC(=O)C1CN(C(CNc2cc(C(F)(F)F)nc3cc(C(F)(F)F)nn23)c2ccc(F)cc2)C1` (single isomer, unassigned) [Example 26, 1-(2-((2,5-Bis(trifluoromethyl)pyrazolo[1,5-a]pyrimidin-7-yl)amino)-1-(4-fluorophenyl)ethyl)-N-(methyl-d3)azetidine-3-carboxamide] returned an IC50 on MRGPRX2 [1] of 0.0001 to 0.1 µM. For the same compound, on MRGPRX2 [3], the “relative potency of the separated isomer” value is “more potent”.

`NC(=O)N1CC2(C1)CN(C(CNc1cc(C(F)(F)F)nc3cc(C(F)(F)F)nn13)c1ccc(F)cc1)C2` (single isomer, unassigned) [Example 29, 6-(2-((2,5-Bis(trifluoromethyl)pyrazolo[1,5-a]pyrimidin-7-yl)amino)-1-(4-fluorophenyl)ethyl)-2,6-diazaspiro[3.3]heptane-2-carboxamide]: the IC50 at MRGPRX2 [1] was in the range of 0.0001 to 0.1 µM.

At MRGPRX2 [1], `CC1(O)CN(C(CNc2cc(C(F)(F)F)nc3cc(C(F)(F)F)nn23)c2ccc(F)cc2)C1` (single isomer, unassigned) [Example 35, 1-(2-((2,5-Bis(trifluoromethyl)pyrazolo[1,5-a]pyrimidin-7-yl)amino)-1-(4-fluorophenyl)ethyl)-3-methylazetidin-3-ol] displayed a concentration for half-maximal inhibition (IC50) of 0.0001 to 0.1 µM. The “relative potency of the separated isomer” value at MRGPRX2 [3] is “active”.

`OC1CC2CC1CN2C(CNc1cc(C(F)(F)F)nc2cc(C(F)(F)F)nn12)c1ccc(F)cc1` (stereo not shown) [Example 22, 2-(2-((2,5-Bis(trifluoromethyl)pyrazolo[1,5-a]pyrimidin-7-yl)amino)-1-(4-fluorophenyl)ethyl)-2-azabicyclo[2.2.1]heptan-5-ol] registered an IC50 on MRGPRX2 [1] of 0.0001 to 0.1 µM.

The term IC50 denotes the midpoint of a concentration-inhibition curve. High values mean weaker potency, low ones greater potency.
